Data reported in paper PMC10975076, “Trypanocidal and Anti-Inflammatory Effects of Three ent-Kaurane Diterpenoids from Gymnocoronis spilanthoides var. subcordata (Asteraceae)” (Pharmaceutics, 2024).
Where two headings read alike, the source gives them in different places.

What was measured:
[1] = system: iNOS expression and NO production; design: method as in doi:10.7324/JAPS.2023.95766; details: cited from earlier work
[2] = Cytotoxicity assay on splenocytes, propidium iodide flow cytometry; type: cell-based, mice; details: BALB/c, mouse, murine splenocytes
Description: The cytotoxicity of the isolated compounds was evaluated using splenocytes obtained from BALB/c mice. Primary cell cultures (1.5 × 10^5) were incubated with different concentrations of the isolated phytochemicals (5–200 μg/mL) in RPMI medium supplemented with 10% fetal bovine serum. After 48 h of incubation at 37 °C (5% CO2), the cells were harvested, washed once with PBS and stained with 2.5 μg/mL propidium iodide (PI) for 5 min at room temperature. Subsequently, cell death was assessed via flow cytometry using a BD FACSaria II cytometer. Cells incubated with DMSO were used as 100% viability control, and the death percentage was calculated according to the following formula: {1 − [(% PI^− cells treated)/(% PI^− cells of the viability control)] × 100}.

[3] = system: type-I Interferon (IFN) pathway, RAW-Lucia ISG cells; test: Type-I interferon reporter assay in RAW-Lucia ISG cells, Lucia luciferase; type: cell-based, murine; details: 24 h
Description: The effect of compound 1 on a type-I Interferon (IFN) reporter cell line stimulated with LPS was studied. RAW-Lucia cells express the Lucia luciferase enzyme under the control of the ISG54 promoter that responds to an IFN-stimulated response element, which is activated by several Interferon Regulatory Factors (IRFs).
RAW-Lucia ISG cells I (InvivoGen, San Diego, CA, USA) (100 μL) were cultured (100,000 cells/well) with DMEM at 37 °C in a 5% CO2 atmosphere to be stimulated with LPS (0.5 µg/mL) or a combination of LPS and compound 1 (1 and 10 µg/mL). Unstimulated cells were included as controls. After a 24 h incubation, the supernatants of each well were collected in order to quantify the luciferase activity by measuring the luminescence generated after the addition of the QUANTI-Luc reagent (InvivoGen) according to the manufacturer’s instructions with a PerkinElmer Victor3 luminometer.

[4] = system: T. cruzi (RA strain) infection in BALB/c mice; test: In vivo trypanocidal activity in murine model of T. cruzi infection; design: species or system Trypanosoma cruzi; details: for Hazard ratio (logrank) vs vehicle: Kaplan–Meier survival; for decrease in the area under the parasitemia curve (AUC): fold vs untreated control group
[5] = system: T. cruzi epimastigotes (RA strain); test: In vitro activity against epimastigotes, [3H]-thymidine uptake assay; type: cell-based; details: Trypanosoma cruzi
[6] = system: T. cruzi amastigotes (Tulahuen strain expressing β-galactosidase); test: In vitro activity against amastigotes in infected Vero cells, β-galactosidase/CPRG readout; type: cell-based; details: Trypanosoma cruzi, 120 h, intracellular amastigotes in Vero cells, 5 days
Description: Cultures of Trypanosoma cruzi epimastigotes (RA strain) were maintained through weekly passages in LIT medium supplemented with 10% fetal bovine serum at 28 °C. Trypanosoma cruzi bloodstream trypomastigotes (RA strain) were obtained from infected CF1 mice by cardiac puncture 15 days after infection at the peak of parasitemia while transfected trypomastigotes expressing β-galactosidase (Clone C4, e Tulahuen strain) were obtained from infected Vero cells.
The activity of compounds 1–3 on the intracellular forms of T. cruzi was evaluated. Vero cells (5 × 10^3/well) were infected with culture-derived trypomastigotes of T. cruzi from the Tulahuen strain expressing β-galactosidase (MOI: 10). After an O.N. incubation at 37 °C, and 5% CO2, non-infecting parasites were washed out and infected cells were incubated with increasing concentrations of the compounds (0.001–50 µg/mL). Cells treated with DMSO or benznidazole and non-infected cells were included as controls. After 5 days, cells were lysed with 1% Nonidet P-40, and chlorophenol red-β-D-galactopyranoside (CPRG) (100 μM) was added as a substrate for the β-galactosidase enzyme. The plate was then incubated for 4 h at 37 °C and β-galactosidase activity was determined by measuring the absorbance at 570 nm. The percentage of inhibition for each concentration of compounds was calculated as: 100 − {[(absorbance of treated infected cells)/(absorbance of untreated infected cells)] × 100}.

[7] = system: IL-10 production, Raw-Blue macrophages; test: IL-10 in RAW-Blue supernatants, ELISA; type: cell-based, murine; details: increasing concentrations (1, 10 µg/mL), 24 h, dose-dependent
Description: (§1) The production of the cytokines IL-10 and TNF was also determined in cell supernatant from these samples with an ELISA assay (R&D System, Minneapolis, MN, USA; BD Pharmingen, Franklin Lakes, NJ, USA).

[8] = system: TNF secretion, Raw-Blue macrophages; test: TNF in RAW-Blue supernatants, capture ELISA; type: cell-based, murine; details: 24 h
Description: as §1

T. cruzi epimastigotes = test: Transmission electron microscopy of treated epimastigotes; type: cell-based, Trypanosoma cruzi; details: 20 µM
Description: All procedures were carried out according to Brengio et al.. Epimastigotes from T. cruzi were treated with 20 µM of compound 1 for either 48 h or 72 h. Then, the parasites were centrifuged at 1000× g for 10 min and fixed with 2.5% glutaraldehyde. Subsequently, they were washed three times with PBS and postfixed overnight with 2% OsO4. After washing twice with PBS, cells were stained with 1% uranyl acetate. The samples were dehydrated sequentially in ethanol and acetone and embedded in Epon 812. Ultrathin slices of 60 nm were obtained using an automatic Leica-ultracut R ultramicrotome and observed with a Microscope Zeiss EM900 (Zeiss, Oberkochen, Germany).

NF-kB, RAW-Blue cells = test: NF-kB reporter assay in RAW-Blue cells, SEAP activity; type: cell-based, murine; details: 24 h
Description: The effect of compound 1 was evaluated on a cell line that secretes alkaline phosphatase as a surrogate marker for the secretion of NF-kB. RAW-Blue cells (InvivoGen) (100 μL) were seeded in a 96-well plate (100,000 cells/well) with DMEM at 37 °C in a 5% CO2 atmosphere. […] Untreated cells were included as controls. The supernatants were collected and absorbance at 620–655 nm was measured after the addition of the Quanti-Blue reagent (InvivoGen) in a microplate reader. Levels of NF-kB were calculated following the manufacturer’s instructions.

[9] = system: nitric oxide production, Raw-Blue cells; test: Nitric oxide production, Griess reaction on RAW-Blue supernatants; type: cell-based, murine
Description: The Griess reaction assay was performed to determine the effect of compound 1 on Nitric Oxide production. The same supernatant samples obtained in Section 2.8.2 (50 µL) were combined with 100 µL of Griess reagent. After incubation at room temperature for 30 min, absorbance was measured at 540 nm. A calibration curve was constructed with 1–250 µM of […] to extrapolate the nitrite concentration in the tested samples.

[10] = primary splenocytes, read-out: CC50 µg/mL ± SEM
[11] = primary splenocytes, read-out: CC50
[12] = LPS 0.5 µg/mL, 1 or 10 µg/mL compound
[13] = infected BALB/c mice, 1 mg/kg/day i.p. each for 5 days
[14] = T. cruzi epimastigotes, 72 h incubation, read-out: IC50 ± SEM Epimastigotes
[15] = T. cruzi epimastigotes, 72 h incubation, value in brackets, read-out: IC50 Epimastigotes (converted)
[16] = read-out: IC50 ± SEM Amastigotes
[17] = value in brackets, read-out: IC50 Amastigotes (converted)

Row | Compound | CC50 at 48 h [2, 10] [µg/mL] | CC50 at 48 h [2, 11] [µM] | Hazard ratio (logrank) vs vehicle ([4]; 1 mg/kg/day i.p. for 5 days) | decrease in the area under the parasitemia curve (AUC) [4, 13] | IC50 [5, 14] [mg/L] | IC50 [5, 15] [µM] | IC50 [6, 16] [mg/L] | IC50 [6, 17] [µM] | other results
1 | C=C1C(=O)[C@@]23CC[C@@H]4[C@](C)(C(=O)O)CCC[C@@]4(C)[C@]2(O)[C@@H](O)C[C@@H]1C3 (single isomer, unassigned; ent-9) [Compound 1, ent-9α,11α-dihydroxy-15-oxo-kaur-16-en-19-oic acid] | 112 ± 3.4 | 322 | 0.9 | two-fold | 3.7 ± 0.5 | 10.6 | 2.1 ± 0.3 | 6.1 | iNOS expression and NO production in vitro [1]: inhibit iNOS expression and NO production; Lucia luciferase activity after LPS stimulation [3, 12]: reduction in enzymatic activity; basal Lucia luciferase activity ([3]; unstimulated control cells, 1 or 10 µg/mL): did not affect the basal levels of Lucia luciferase activity; parasitemia levels ([4]; infected BALB/c mice, 1 mg/kg/day i.p. for 5 days, vs vehicle): significant decrease in parasitemia levels; IL-10 production and secretion [7]: increase in the production and secretion of IL-10; TNF levels after LPS stimulation ([8]; LPS 0.5 µg/mL, 1 and 10 µg/mL compound): significantly reduced; basal levels of TNF ([8]; without LPS, increasing concentrations (1, 10 µg/mL)): significant decrease in the basal levels of TNF; ultrastructural effect on epimastigotes (TEM) (T. cruzi epimastigotes; 48 h): formation of abnormal cytosolic membranous structures; ultrastructural effect on epimastigotes (TEM) (T. cruzi epimastigotes; 72 h): Abnormal cytosolic membranous structures; NF-kB activation by TLR agonists (SEAP activity) (NF-kB, RAW-Blue cells; CpG 100 µg/mL, Poly(I:C) 100 µg/mL or LPS 0.5 µg/mL, compound 2.5 µg/mL): significantly inhibit NF-kB activation; LPS-mediated activation of NF-kB (SEAP activity) (NF-kB, RAW-Blue cells; [12]): dose-dependent inhibition; nitric oxide production (nitrite) with TLR ligands ([9]; CpG 100 µg/mL, Poly(I:C) 100 µg/mL or LPS 0.5 µg/mL, compound 2.5 µg/mL, 24 h): significant decrease in nitric oxide production; nitric oxide production (nitrite levels) after LPS ([9]; LPS-stimulated Raw-Blue macrophages, dose-dependent): significantly inhibited nitric oxide production
2 | C=C1C(=O)[C@@]23CC[C@H]4[C@@](C)(CCC[C@@]4(C)C(=O)O)[C@@H]2[C@@H](O)C[C@@H]1C3 (single isomer, unassigned; ent-11) [Compound 3, ent-11α-hydroxy-15-oxo-kaur-16-en-19-oic acid] | – | – | – | – | 1.6 ± 0.6 | 4.8 | 20.1 ± 8.2 | 60.6 | CC50 at 48 h ([2]; read-out: CC50 µg/mL ± SEM): 4.9 ± 1.6 µg/mL; CC50 at 48 h ([2]; read-out: CC50): 14.8 µM
3 | O=C(Cn1ccnc1[N+](=O)[O-])NCc1ccccc1 [Benznidazole, benznidazole, reference compound] | 45.3 ± 1.8 | 81.5 | 1.1 | 1.6 | – | – | 0.5 ± 0.04 | 1.9 | mice remaining alive at the end of the acute infection phase ([4]; 1 mg/kg/day i.p. each for 5 days): none; IC50 ([5]; 72 h, read-out: IC50 Epimastigotes): 4.2 µM; IC50 ([5]; 72 h, read-out: IC50 ± SEM Epimastigotes): 1.08 ± 0.2 mg/L
4 | C[C@H]1C(=O)[C@@]23CC[C@H]4[C@@](C)(CCC[C@@]4(C)C(=O)O)[C@@H]2[C@@H](O)C[C@@H]1C3 [Compound 2, (16R)-ent-11α-hydroxy-15-oxokauran-19-oic acid] | 7.8 ± 0.2 | 23.3 | – | – | 5.2 ± 0.3 | 15.9 | 6.5 ± 0.2 | 19.5 | –
